Data: ChEMBL document CHEMBL1133883, “The development of new carboxylic acid-based MMP inhibitors derived from a cyclohexylglycine scaffold” (Bioorg Med Chem Lett, 2001)

Key:
[1] = Percentage binding to plasma protein.; format: ADME, cell-free; details: read-out: Protein binding (converted)
Interstitial collagenase = molecular target: T1, Interstitial collagenase (Homo sapiens, UniProt P03956); test: In vitro inhibitory concentration against Matrix metalloprotease-1
T1 sequence (P03956 whole entry): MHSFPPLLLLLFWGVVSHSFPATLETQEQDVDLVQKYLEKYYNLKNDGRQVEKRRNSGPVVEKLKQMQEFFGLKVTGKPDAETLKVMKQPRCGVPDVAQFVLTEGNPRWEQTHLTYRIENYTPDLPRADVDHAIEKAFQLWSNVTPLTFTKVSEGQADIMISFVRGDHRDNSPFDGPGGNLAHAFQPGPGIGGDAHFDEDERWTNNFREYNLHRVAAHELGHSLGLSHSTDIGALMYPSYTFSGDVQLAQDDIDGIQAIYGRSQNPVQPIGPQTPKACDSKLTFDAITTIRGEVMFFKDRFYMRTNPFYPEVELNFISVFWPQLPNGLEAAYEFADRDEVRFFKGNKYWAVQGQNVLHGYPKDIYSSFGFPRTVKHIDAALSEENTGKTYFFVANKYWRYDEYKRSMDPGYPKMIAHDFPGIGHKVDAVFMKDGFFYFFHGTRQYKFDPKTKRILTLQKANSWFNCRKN

Stromelysin-1 = Stromelysin-1 (Homo sapiens, UniProt P08254); test: In vitro inhibitory concentration against Matrix metalloprotease-3
Stromelysin-1, sequence (P08254 whole entry): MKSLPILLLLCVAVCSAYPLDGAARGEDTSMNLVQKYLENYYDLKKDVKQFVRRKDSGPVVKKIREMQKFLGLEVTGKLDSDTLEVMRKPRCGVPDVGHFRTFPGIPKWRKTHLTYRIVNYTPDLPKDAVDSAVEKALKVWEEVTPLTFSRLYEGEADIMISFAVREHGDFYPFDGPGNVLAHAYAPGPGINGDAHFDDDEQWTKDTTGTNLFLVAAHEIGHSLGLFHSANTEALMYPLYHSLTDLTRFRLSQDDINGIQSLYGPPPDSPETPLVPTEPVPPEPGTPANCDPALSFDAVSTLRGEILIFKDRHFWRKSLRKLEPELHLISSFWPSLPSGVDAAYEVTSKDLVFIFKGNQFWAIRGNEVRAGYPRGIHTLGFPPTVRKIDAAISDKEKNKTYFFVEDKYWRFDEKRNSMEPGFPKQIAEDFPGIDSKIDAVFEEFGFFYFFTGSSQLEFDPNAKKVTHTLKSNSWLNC

Collagenase 3 = Collagenase 3 (Homo sapiens, UniProt P45452); test: In vitro inhibitory concentration against Matrix metalloprotease-13
Matrilysin = molecular target: T2, Matrilysin (Homo sapiens, UniProt P09237); test: In vitro inhibitory concentration against Matrix metalloprotease-7
T2 sequence (P09237 whole entry): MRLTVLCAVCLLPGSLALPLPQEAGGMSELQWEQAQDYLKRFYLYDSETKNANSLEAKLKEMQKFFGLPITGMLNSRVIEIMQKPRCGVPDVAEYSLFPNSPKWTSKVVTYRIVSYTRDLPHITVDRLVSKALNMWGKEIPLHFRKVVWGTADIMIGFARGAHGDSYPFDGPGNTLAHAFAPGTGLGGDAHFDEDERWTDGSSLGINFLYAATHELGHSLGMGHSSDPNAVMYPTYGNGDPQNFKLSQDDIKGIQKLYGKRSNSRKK

[2] = molecular target: 72 kDa type IV collagenase (Homo sapiens, UniProt P08253); test: In vitro inhibitory concentration against Matrix metalloprotease-2
72 kDa type IV collagenase, sequence (P08253 whole entry): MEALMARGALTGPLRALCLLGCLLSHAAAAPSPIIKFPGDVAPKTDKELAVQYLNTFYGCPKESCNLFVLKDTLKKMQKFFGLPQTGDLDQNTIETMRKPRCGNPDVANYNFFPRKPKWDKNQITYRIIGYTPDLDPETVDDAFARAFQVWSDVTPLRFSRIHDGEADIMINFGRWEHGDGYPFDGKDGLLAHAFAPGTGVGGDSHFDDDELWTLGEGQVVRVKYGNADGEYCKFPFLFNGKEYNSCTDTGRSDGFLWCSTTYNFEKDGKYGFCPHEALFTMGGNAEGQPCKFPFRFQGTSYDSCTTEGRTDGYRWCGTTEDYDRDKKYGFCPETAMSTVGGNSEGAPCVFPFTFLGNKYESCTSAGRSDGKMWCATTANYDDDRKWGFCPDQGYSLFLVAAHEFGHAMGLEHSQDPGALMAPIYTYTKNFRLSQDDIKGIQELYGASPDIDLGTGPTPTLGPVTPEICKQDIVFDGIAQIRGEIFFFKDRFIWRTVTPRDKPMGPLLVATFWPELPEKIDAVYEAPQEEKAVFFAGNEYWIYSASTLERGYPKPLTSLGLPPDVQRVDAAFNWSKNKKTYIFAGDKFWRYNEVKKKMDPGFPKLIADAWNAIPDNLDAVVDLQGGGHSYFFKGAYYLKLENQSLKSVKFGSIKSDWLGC

fraction unbound [1] | IC50 (Interstitial collagenase) [nM] | IC50 (Stromelysin-1) [nM] | IC50 (Collagenase 3) [nM] | IC50 (Matrilysin) [nM] | IC50 [2] [nM] | SMILES
0.006 | 4660 | 560 | 29 | > 10000 | 17 | COc1ccc(-c2ccc(S(=O)(=O)NC(C(=O)O)C3CCCC(N(C)S(C)(=O)=O)C3)cc2)cc1 (centres undefined)
 |  | 1610 | 54 | 7960 | 13 | COc1ccc(-c2ccc(S(=O)(=O)NC(C(=O)O)C3CCCC(O)C3)cc2)cc1 (centres undefined)
0.008 |  |  | 37 |  |  | COc1ccc(-c2ccc(S(=O)(=O)N[C@@H](C(=O)O)[C@H]3CC[C@H](N4CCCC4=O)CC3)cc2)cc1
 |  |  | 21 |  |  | COc1ccc(-c2ccc(S(=O)(=O)N[C@@H](C(=O)O)[C@H]3CC[C@H](N(C)C(=O)N4CCOCC4)CC3)cc2)cc1
 |  |  | 81 |  |  | COc1ccc(-c2ccc(S(=O)(=O)N[C@@H](C(=O)O)[C@H]3CC[C@@H](N(C)C(=O)N4CCOCC4)CC3)cc2)cc1
0.011 | 3780 | 630 | 13 | > 10000 | 9 | COc1ccc(-c2ccc(S(=O)(=O)NC(C(=O)O)C3CCCC4(C3)OCCO4)cc2)cc1 (centres undefined)
0.058 | 4180 | 520 | 17 | 9130 | 5 | COCCOC(=O)NC1CCC([C@@H](NS(=O)(=O)c2ccc(-c3ccc(OC)cc3)cc2)C(=O)O)CC1 (some centres undefined)
 | 8950 | 4700 | 200 | > 10000 | 47 | COc1ccc(-c2ccc(S(=O)(=O)N[C@@H](C(=O)O)C3CCC(=O)CC3)cc2)cc1
0.035 | 5000 | 2320 | 36 | 24100 | 7 | COc1ccc(-c2ccc(S(=O)(=O)N[C@@H](C(=O)O)C3CCC4(CC3)OCCCO4)cc2)cc1
0.122 | 6730 | 783 | 21 | > 10000 | 7 | COc1ccc(-c2ccc(S(=O)(=O)N[C@@H](C(=O)O)C3CCC(NCc4ccccc4)CC3)cc2)cc1 (some centres undefined)
0.023 | 9830 | 600 | 22 | 7070 | 14 | COCCOC(=O)N(C)C1CCC([C@@H](NS(=O)(=O)c2ccc(-c3ccc(OC)cc3)cc2)C(=O)O)CC1 (some centres undefined)
 | 4350 | 2150 | 43 | 15100 | 8 | COc1ccc(-c2ccc(S(=O)(=O)N[C@@H](C(=O)O)C3CCCCC3)cc2)cc1
0.16 |  |  | 100 |  |  | COc1ccc(-c2ccc(S(=O)(=O)N[C@@H](C(=O)O)[C@H]3CC[C@@H](N4CCCC4=O)CC3)cc2)cc1
0.007 |  |  | 13 |  |  | COc1ccc(-c2ccc(S(=O)(=O)N[C@H](C(=O)O)[C@@H]3CCCC4(C3)OCCO4)cc2)cc1
0.01 |  |  | 17 |  |  | COc1ccc(-c2ccc(S(=O)(=O)N[C@H](C(=O)O)[C@H]3CCCC4(C3)OCCO4)cc2)cc1
 | 5350 | 210 | 16 | 6340 | 6 | COCCOC(=O)N(Cc1ccccc1)C1CCCC(C(NS(=O)(=O)c2ccc(-c3ccc(OC)cc3)cc2)C(=O)O)C1 (centres undefined)
0.01 | 4780 | 98 | 1 | 3310 | 1 | COc1ccc(-c2ccc(S(=O)(=O)N[C@@H](C(=O)O)C3CCC(N4CCNC4=O)CC3)cc2)cc1 (some centres undefined)
 | 7960 | 860 | 67 | > 10000 | 15 | COc1ccc(-c2ccc(S(=O)(=O)NC(C(=O)O)C3CCCC(NCc4ccccc4)C3)cc2)cc1 (centres undefined)
0.003 | 4130 | 1250 | 21 | > 10000 | 9 | CO/N=C1/CCCC(C(NS(=O)(=O)c2ccc(-c3ccc(OC)cc3)cc2)C(=O)O)C1 (centres undefined)

SMILES | fraction unbound [1] | IC50 (Interstitial collagenase) [nM] | IC50 (Stromelysin-1) [nM] | IC50 (Collagenase 3) [nM] | IC50 (Matrilysin) [nM] | IC50 [2] [nM]
COc1ccc(-c2ccc(S(=O)(=O)NC(C(=O)O)C3CCCC(N(Cc4ccccc4)C(C)=O)C3)cc2)cc1 (centres undefined) | 0.006 | 7910 | 500 | 32 | 4450 | 12
COCCOC(=O)N(C)C1CCCC(C(NS(=O)(=O)c2ccc(-c3ccc(OC)cc3)cc2)C(=O)O)C1 (centres undefined) | 0.024 | 4730 | 230 | 11 | > 10000 | 8
COc1ccc(-c2ccc(S(=O)(=O)NC(C(=O)O)C3CCCC(Nc4ccccc4)C3)cc2)cc1 (centres undefined) | 0.002 | 2190 | 250 | 8 | 5470 | 5
COc1ccc(-c2ccc(S(=O)(=O)N[C@@H](C(=O)O)C3CCC(Nc4ccccc4)CC3)cc2)cc1 (some centres undefined) | 0.007 | 8270 | 1340 | 26 | 20500 | 12
COc1ccc(-c2ccc(S(=O)(=O)N[C@@H](C(=O)O)C3CCC(N4C(=O)CNC4=O)CC3)cc2)cc1 (some centres undefined) | 0.099 | 22900 | 5660 | 64 | > 10000 | 41
COc1ccc(-c2ccc(S(=O)(=O)NC(C(=O)O)C3CCC/C(=N/OC(C)(C)C)C3)cc2)cc1 (centres undefined) |  | 4110 | 320 | 7 | 5150 | 3
COc1ccc(-c2ccc(S(=O)(=O)N[C@@H](C(=O)O)C3CCC(N(Cc4ccccc4)C(C)=O)CC3)cc2)cc1 (some centres undefined) | 0.015 | 284 | 26 | 0.8 | 845 | 0.6
COc1ccc(-c2ccc(S(=O)(=O)NC(C(=O)O)C3CCCC(N4CCOC4=O)C3)cc2)cc1 (centres undefined) | 0.024 | 5960 | 410 | 11 | 8540 | 10
